The source of these data is the supplement of paper PMC10307832.

The first assay concerns NCI-H727. In words: relative viability (nuclei count vs DMSO), 5 days (fraction); higher = more cells survive. Particulars: first compound 0.8 µM. In outline:
(§1)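 Dosing by pin tool came one day after lung cancer cell lines were seeded in 1536-well plates, using either one drug or a fixed anchor-drug dose plus five library-drug doses (not always all listed) in √10 steps. After 5 days, nuclei were counted on 4× images. Relative viability is treated-well nuclei count divided by vehicle-well nuclei count, and values are medians of duplicate plates.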
In turn, `CCCCCCCCCCCC1=C(O)C(=O)C=C(O)C1=O` [Embelin] + NC(=O)Nc1cc(-c2cccc(F)c2)sc1C(=O)N[C@H]1CCCNC1 [AZD7762] (partner 0.2 µM) gave a relative viability of 0.503.
On the same count and under the same terms, the value for `CCCCCCCCCCCC1=C(O)C(=O)C=C(O)C1=O` [Embelin] + Cc1nc(NC(=O)N2CCC[C@H]2C(N)=O)sc1-c1ccnc(C(C)(C)C(F)(F)F)c1 [Alpelisib] (partner 2 µM) was 0.57.

Staying with this assay, now noted: first compound 2.53 µM.
As for `CCCCCCCCCCCC1=C(O)C(=O)C=C(O)C1=O` [Embelin] + COc1cc2c(Oc3ccc(NC(=O)C4(C(=O)Nc5ccc(F)cc5)CC4)cc3F)ccnc2cc1OCCCN1CCOCC1 [Foretinib] (partner 0.25 µM), the relative viability came to 1.11.
For `CCCCCCCCCCCC1=C(O)C(=O)C=C(O)C1=O` [Embelin] + CC(=O)Nc1cccc(-n2c(=O)n(C3CC3)c(=O)c3c(Nc4ccc(I)cc4F)n(C)c(=O)c(C)c32)c1 [Trametinib] (partner 0.02 µM), the relative viability amounted to 0.39.
Molecule `CCCCCCCCCCCC1=C(O)C(=O)C=C(O)C1=O` [Embelin] + CS(=O)(=O)N1CCN(Cc2cc3nc(-c4cccc5[nH]ncc45)nc(N4CCOCC4)c3s2)CC1 [Pictilisib] (partner 1 µM) came in with a relative viability of 0.355.
Still for that read-out and setting: the value for `CCCCCCCCCCCC1=C(O)C(=O)C=C(O)C1=O` [Embelin] + NC(=O)Nc1cc(-c2cccc(F)c2)sc1C(=O)N[C@H]1CCCNC1 [AZD7762] (partner 0.2 µM) was 0.647; that for `CCCCCCCCCCCC1=C(O)C(=O)C=C(O)C1=O` [Embelin] + Cc1nc(NC(=O)N2CCC[C@H]2C(N)=O)sc1-c1ccnc(C(C)(C)C(F)(F)F)c1 [Alpelisib] (partner 2 µM) was 0.578.

Staying with this assay, now noted: first compound 8 µM.
In turn, `CCCCCCCCCCCC1=C(O)C(=O)C=C(O)C1=O` [Embelin] + COc1cc2c(Oc3ccc(NC(=O)C4(C(=O)Nc5ccc(F)cc5)CC4)cc3F)ccnc2cc1OCCCN1CCOCC1 [Foretinib] (partner 0.25 µM) returned a relative viability of 0.761.
For `CCCCCCCCCCCC1=C(O)C(=O)C=C(O)C1=O` [Embelin] + CC(=O)Nc1cccc(-n2c(=O)n(C3CC3)c(=O)c3c(Nc4ccc(I)cc4F)n(C)c(=O)c(C)c32)c1 [Trametinib] (partner 0.02 µM), the relative viability amounted to 0.423.
`CCCCCCCCCCCC1=C(O)C(=O)C=C(O)C1=O` [Embelin] + CS(=O)(=O)N1CCN(Cc2cc3nc(-c4cccc5[nH]ncc45)nc(N4CCOCC4)c3s2)CC1 [Pictilisib] (partner 1 µM): the relative viability was 0.51.
Consider `CCCCCCCCCCCC1=C(O)C(=O)C=C(O)C1=O` [Embelin] + NC(=O)Nc1cc(-c2cccc(F)c2)sc1C(=O)N[C@H]1CCCNC1 [AZD7762] (partner 0.2 µM), for which the relative viability turned out to be 0.582.
As for `CCCCCCCCCCCC1=C(O)C(=O)C=C(O)C1=O` [Embelin] + Cc1nc(NC(=O)N2CCC[C@H]2C(N)=O)sc1-c1ccnc(C(C)(C)C(F)(F)F)c1 [Alpelisib] (partner 2 µM), the relative viability was 0.511.

For the next assay, the system named is NCI-H2347. The assay is described as above. The following applies: first compound 0.08 µM. The method in brief:
as §1
The molecule `CCCCCCCCCCCC1=C(O)C(=O)C=C(O)C1=O` [Embelin] + COc1cc2c(Oc3ccc(NC(=O)C4(C(=O)Nc5ccc(F)cc5)CC4)cc3F)ccnc2cc1OCCCN1CCOCC1 [Foretinib] (partner 0.25 µM) showed a relative viability of 0.981.
The same measure, in the same setting: the same measure for `CCCCCCCCCCCC1=C(O)C(=O)C=C(O)C1=O` [Embelin] + CC(=O)Nc1cccc(-n2c(=O)n(C3CC3)c(=O)c3c(Nc4ccc(I)cc4F)n(C)c(=O)c(C)c32)c1 [Trametinib] (partner 0.02 µM): 0.307.
Take `CCCCCCCCCCCC1=C(O)C(=O)C=C(O)C1=O` [Embelin] + CS(=O)(=O)N1CCN(Cc2cc3nc(-c4cccc5[nH]ncc45)nc(N4CCOCC4)c3s2)CC1 [Pictilisib] (partner 1 µM): the relative viability came to 0.64.
On the same count and under the same terms, the same measure for `CCCCCCCCCCCC1=C(O)C(=O)C=C(O)C1=O` [Embelin] + NC(=O)Nc1cc(-c2cccc(F)c2)sc1C(=O)N[C@H]1CCCNC1 [AZD7762] (partner 0.2 µM): 0.841; for `CCCCCCCCCCCC1=C(O)C(=O)C=C(O)C1=O` [Embelin] + Cc1nc(NC(=O)N2CCC[C@H]2C(N)=O)sc1-c1ccnc(C(C)(C)C(F)(F)F)c1 [Alpelisib] (partner 2 µM): 1.05.

The assay is the same for the next values; noted with them: first compound 0.8 µM.
With `CCCCCCCCCCCC1=C(O)C(=O)C=C(O)C1=O` [Embelin] + COc1cc2c(Oc3ccc(NC(=O)C4(C(=O)Nc5ccc(F)cc5)CC4)cc3F)ccnc2cc1OCCCN1CCOCC1 [Foretinib] (partner 0.25 µM), the relative viability came to 0.837.
For the molecule `CCCCCCCCCCCC1=C(O)C(=O)C=C(O)C1=O` [Embelin] + CC(=O)Nc1cccc(-n2c(=O)n(C3CC3)c(=O)c3c(Nc4ccc(I)cc4F)n(C)c(=O)c(C)c32)c1 [Trametinib] (partner 0.02 µM), the relative viability is 0.272.
As for `CCCCCCCCCCCC1=C(O)C(=O)C=C(O)C1=O` [Embelin] + CS(=O)(=O)N1CCN(Cc2cc3nc(-c4cccc5[nH]ncc45)nc(N4CCOCC4)c3s2)CC1 [Pictilisib] (partner 1 µM), the relative viability was 0.886.
In turn, `CCCCCCCCCCCC1=C(O)C(=O)C=C(O)C1=O` [Embelin] + NC(=O)Nc1cc(-c2cccc(F)c2)sc1C(=O)N[C@H]1CCCNC1 [AZD7762] (partner 0.2 µM) showed a relative viability of 0.85.
As for `CCCCCCCCCCCC1=C(O)C(=O)C=C(O)C1=O` [Embelin] + Cc1nc(NC(=O)N2CCC[C@H]2C(N)=O)sc1-c1ccnc(C(C)(C)C(F)(F)F)c1 [Alpelisib] (partner 2 µM), the relative viability came to 1.16.

Staying with this assay, now noted: first compound 2.53 µM.
Take `CCCCCCCCCCCC1=C(O)C(=O)C=C(O)C1=O` [Embelin] + COc1cc2c(Oc3ccc(NC(=O)C4(C(=O)Nc5ccc(F)cc5)CC4)cc3F)ccnc2cc1OCCCN1CCOCC1 [Foretinib] (partner 0.25 µM): the relative viability is 1.21.
On to `CCCCCCCCCCCC1=C(O)C(=O)C=C(O)C1=O` [Embelin] + CC(=O)Nc1cccc(-n2c(=O)n(C3CC3)c(=O)c3c(Nc4ccc(I)cc4F)n(C)c(=O)c(C)c32)c1 [Trametinib] (partner 0.02 µM), for which the relative viability amounted to 0.255.
`CCCCCCCCCCCC1=C(O)C(=O)C=C(O)C1=O` [Embelin] + CS(=O)(=O)N1CCN(Cc2cc3nc(-c4cccc5[nH]ncc45)nc(N4CCOCC4)c3s2)CC1 [Pictilisib] (partner 1 µM) came in with a relative viability of 0.924.
The same measure, in the same setting: the same measure for `CCCCCCCCCCCC1=C(O)C(=O)C=C(O)C1=O` [Embelin] + NC(=O)Nc1cc(-c2cccc(F)c2)sc1C(=O)N[C@H]1CCCNC1 [AZD7762] (partner 0.2 µM): 0.722; for `CCCCCCCCCCCC1=C(O)C(=O)C=C(O)C1=O` [Embelin] + Cc1nc(NC(=O)N2CCC[C@H]2C(N)=O)sc1-c1ccnc(C(C)(C)C(F)(F)F)c1 [Alpelisib] (partner 2 µM): 1.11.

The same assay, now with this note: first compound 8 µM.
Consider `CCCCCCCCCCCC1=C(O)C(=O)C=C(O)C1=O` [Embelin] + COc1cc2c(Oc3ccc(NC(=O)C4(C(=O)Nc5ccc(F)cc5)CC4)cc3F)ccnc2cc1OCCCN1CCOCC1 [Foretinib] (partner 0.25 µM), for which the relative viability was 0.942.
`CCCCCCCCCCCC1=C(O)C(=O)C=C(O)C1=O` [Embelin] + CC(=O)Nc1cccc(-n2c(=O)n(C3CC3)c(=O)c3c(Nc4ccc(I)cc4F)n(C)c(=O)c(C)c32)c1 [Trametinib] (partner 0.02 µM) showed a relative viability of 0.316.
